Tests used:
[1] = target: class II HDAC enzyme subtypes; test: In vitro HDAC deacetylase activity assay; format: biochemical; settings: read-out: IC50 class II HDAC enzyme subtypes; recombinant human HDACs
[2] = Rat weight during seven days of daily treatment; format: in vivo, rats; settings: Cpd-60 22.5 mg/kg, CI-994 5 mg/kg, vs vehicle-treated controls
brain glucose = settings: rats treated with fluoxetine; cited from earlier work
rats = rats treated with fluoxetine; cited from earlier work

Row | IC50 [1] [µM] | effect on rat weight over seven days [2] | Compound | brain glucose changes (brain glucose) | behavioral effects in the forced swim test (rats)
1 | > 33 | did not significantly affect rat weight | CC(=O)Nc1ccc(C(=O)Nc2ccccc2N)cc1 [CI-994] | – | –
2 | – | – | CNCCC(Oc1ccc(C(F)(F)F)cc1)c1ccccc1 (stereo not shown) [fluoxetine] | 4–14% | antidepressant behavioral effects

Reference: paper PMC3750730 (Neuroscience letters, 2013)
